In patent publication US6921775B2, “Methods for modulating brain damage” (Children's Medical Center Corporation, priority 2001, dated 2005):

Key:
P7 rat pups = test: Hypoxia/ischemia (unilateral carotid ligation followed by hypoxia, 6% O2 for one hour) selective white matter injury model; format: in vivo
Text: The methods used in this example are described in Follett et al. (2000) J. Neurosci. 20:9235-9241, incorporated by reference herein.
Because the white matter of premature infants at high risk for hypoxic/ischemic white matter injury is also populated with immature OLs (Kinney and Back, 1998), this age was chosen to deliver the hypoxic/ischemic insult. […] Injury was limited to the white matter without evidence of injury to cortical neurons. […] Ipsilateral injury included the loss of MBP expression in the OL processes extending into the cortex and decreased thickness of the periventricular white matter and external capsule in four of nine rats.
P7 rat pups underwent unilateral carotid ligation followed by hypoxia (6% O2 for one hour). Following hypoxia, littermates were treated with either topiramate (30 mg/kg, i.p., q12 h, 4 doses, n=12) or vehicle (n=12). 48 hours after hypoxia/ischemia, pups were evaluated with in situ end labeling (ISEL) for the presence of cell death in white matter. Briefly, coronal sections were labeled for the presence of single-stranded DNA fragments as a sensitive indicator of cell death. ISEL positive cells in white matter ipsilateral to the ligation in each of three coronal sections (at the level of the anterior hippocampus, mid-dorsal hippocampus, and posterior dorsal hippocampus) were counted and a mean was taken for each rat.
96 hours post-ischemia/hypoxia, pups were evaluated with ICC for loss of MBP expression ipsilateral to the ligation as compared to the contralateral side. Coronal sections were evaluated by immunocytochemistry with a monoclonal against MBP, and detected with fluorescent secondary antibody. Three sections were evaluated for each rat: the anterior hippocampus, the mid-dorsal hippocampus, and the posterior dorsal hippocampus. Lesion severity was assigned a value on a scale from 0 to 3 as follows: 0 if ipsilateral and colateral hemispheres were similar; 1 if ipsilateral loss was limited to cortical processes; 2, if loss of staining included thinning of the periventricular white matter; and 3 if white matter tracts included a full thickness loss of staining in the capsule. A mean severity score was obtained for immature and mature OL markers in each rat.
Litters of male Long Evans rat pups (Charles River Laboratories, Wilmington, Mass.) were raised with dams in a temperature-controlled environment with 12 hour light-dark cycles. Pups underwent carotid ligation and hypoxia at post-natal-day (P)7. They were recovered on a thermal blanket at 33-34° C. (baseline temperature for P7 rats) and returned to their dam for 48-96 hours prior to sacrifice. Treated pups were given intra-peritoneal (i.p.) injections of 0.1 cc solutions of topiramate, NBQX or vehicle every 12 hours for 48 hours at P7 and P8 for treatment, control and normal development studies.
Hypoxic/ischemic injury was generated in rats by unilateral carotid ligation followed by hypoxia (6% for 1 hour). […] The methods used in this example are described in Follett et al (2000) J. Neurosci. 20:9235-9241, incorporated by reference herein.
Briefly, rats were anesthetized with ether and the proximal internal carotid artery was isolated from the sympathetic chain and ligated. Animals requiring prolonged sedation due to technical issues were removed from the study. The animals were recovered one hour, then placed in a sealed chamber infused with nitrogen to a level of 6% O2, with body temperature maintained at 33-34° C. throughout. […] Pups were allowed a 1-2 hour period of recovery after hypoxia then returned to their dam. Pups were randomized into treatment and control groups by weight to insure no size variation existed between the subjects and controls to start. Following hypoxia animals in the treatment group were given i.p. injections of topirmate (10, 30 or 50 mg/kg in 0.1 cc PBS) or equivalent volume of saline repeat treatment every 12 hours for 48 hours. […]

[1] = system: calcium permeable AMPA/kainate receptors; test: AMPA induced cobalt uptake in coronal brain slices; format: cell-based; conditions: P7 rat slices, 100 μM AMPA, 100 μM MK-801, 20 minute
Text: P6/7 Long Evans rat pups were sacrificed by decapitation and the brains were removed quickly and placed in ice cold rat ACSF. 300 μm coronal slices were cut on a live-slice dedicated vibratome while continually maintained in oxygen bubbled, cold ACSF. Slices were transferred to an oxygen chamber, where they were maintained at room temperature.
300 μm thick vibratome cut coronal slices were collected from the anterior commissure to the anterior aspect of the thalamus and placed in oxygen-rich ice cold rat ACSF. Stabilized slices were transferred to a room temperature oxygen chamber and maintained in ACSF. Stable slices were transferred to modified ACSF containing low calcium and 5 mM CoCL2 and stimulated with 100 μM AMPA in the presence of 100 μM MK-801 and with or without topiramate in varying concentrations. Slices were incubated at room temperature for 20 minutes then rinsed in ACSF, followed by 3 rinses in ASCF containing 2 mM EDTA to chelate and remove any unbound cobalt. Cobalt was then precipitated with ammonium […]. Sections were fixed in 4% paraformaldehyde for 10 minutes, rinsed and stored in PBS. Silver enhancement of precipitate was carried out for improved visualization. Slices were transferred to enhancement solution (10% sucrose, 15.5 mM hydroquinone, 42 mM citric acid) and warmed to 50° C. Slices were moved to similar solution containing 0.1% silver nitrate, then incubated at 50° C. for 45 minutes, with solution changes every 15 minutes. Sections were rinsed in PBS then cryoprotected in 30% sucrose solution and 40 μm sections, cut using a freezing microtome, were mounted on slides and analyzed.
Cortical slices were assessed for the presence of AMPA induced cobalt uptake in coronal slices from P7 rats. […] Immature OLs in pericallosal white matter at P7 show consistent cobalt uptake following 20 minute incubation with 100 μM AMPA, 100 μM MK-801 in low Ca^2+, cobalt containing rat ACSF (FIG. 6B). Cobalt-containing white matter cells were identified as OL precursors by immunolabeling with O4 surface antigen (FIG. 6C and FIG. 6D). […]

[2] = P7 rats, topiramate 30 mg/kg i.p. q12 h 4 doses, 96 hours
[3] = 100 μM NBQX or 50 μM topiramate

SMILES | protective effect at the lower dose (MBP injury) (P7 rat pups; Example 3, 10 mg/kg per dose (40 mg/kg divided over 48 hours)) | lesion severity, blinded semi-quantitative analysis of MBP expression (P7 rat pups; Example 3, 30 mg/kg topiramate every 12 hours for 48 hours, 96 hours after hypoxia, vs vehicle p<0.01) | effect at the higher dose (MBP injury) (P7 rat pups; Example 3, 50 mg/kg per dose (200 mg/kg divided over 48 hours)) | body temperature by rectal probe, treatment vs control groups (P7 rat pups; Example 3, P7 rats, monitored at each stage) | dose with maximal protective effect (MBP injury) (P7 rat pups; Example 3, partial dose response 10, 30, 50 mg/kg every 12 hours for 48 hours) | pups with less than 20 ISEL positive cells per section in subcortical white matter ipsilateral to the ligation (P7 rat pups; P7 rats, topiramate 30 mg/kg i.p. q12 h 4 doses, 48 hours after hypoxia/ischemia) | white matter cell death (ISEL positive cells) (P7 rat pups; P7 rats, topiramate 30 mg/kg i.p. q12 h 4 doses, 48 hours after hypoxia/ischemia, p<0.03) | pups with no appreciable loss of MBP expression ipsilateral to the carotid ligation (P7 rat pups; [2]) | pups with severe injury (MBP loss) (P7 rat pups; [2]) | loss of MBP expression ipsilateral to the ligation (P7 rat pups; P7 rats, topiramate 30 mg/kg i.p. q12 h 4 doses, 96 hours post-ischemia/hypoxia, p=0.04) | cobalt uptake in immature OLs of pericallosal white matter ([1]; 10 μM topiramate) | cobalt uptake in immature OLs of pericallosal white matter [1, 3] | white matter injury, semiquantitative lesion severity by MBP expression (P7 rat pups; P7 rats, NBQX post-treatment at termination of hypoxia, 96 hours after insult, vs vehicle-treated controls, p<0.001) | white matter injury, semiquantitative lesion severity by O1 expression (P7 rat pups; P7 rats, NBQX post-treatment at termination of hypoxia, 96 hours after insult, vs vehicle-treated controls, p<0.005) | treated pups with no detectable injury (P7 rat pups; P7 rats, NBQX post-treatment, 96 hours after insult) | rectal temperature, treated vs untreated groups (P7 rat pups; P7 rats, NBQX treatment initiated after hypoxia)
CC1(C)O[C@@H]2[C@@H](CO[C@@]3(COS(N)(=O)=O)OC(C)(C)O[C@@H]23)O1 [topiramate] | less efficacy | significant attenuation of lesion severity | question of possible toxicity | did not differ between treatment and control groups | 30 mg/kg/dose | Five out of six | significant decreases in white matter cell death | two out of five | None of the topiramate treated pups exhibited severe injury | significant attenuation of MBP loss | partial effect | effectively blocked |  |  |  | 
NS(=O)(=O)c1cccc2c1c([N+](=O)[O-])cc1nc(O)c(O)nc12 [NBQX, 2,3-Dioxo-6-nitro-1,2,3,4-tetrahydrobenzo[f]quinoxaline-7-sulphonamide] |  |  |  |  |  |  |  |  |  |  |  | effectively blocked | significant attenuation of white matter injury | significant attenuation of white matter injury | three of seven | No difference in rectal temperatures
